From the kinase profiling compilation of Christmann-Franck et al. (2016)

Tests used:
Assay in all cases: KINOMEscan competition binding
Conditions in all cases: compound 10.0 µM
ACVR2B (human) = ACVR2B (human) (UniProt Q13705)
ALK (human) = ALK (human) (UniProt Q9UM73)
BMPR2 (human) = BMPR2 (human) (UniProt Q13873)
CDK3 (human) = CDK3 (human) (UniProt Q00526)
CLK1 (human) = CLK1 (human) (UniProt P49759)
CSNK1A1L (human) = CSNK1A1L (human) (UniProt Q8N752)
DAPK2 (human) = DAPK2 (human) (UniProt Q9UIK4)
DCLK3 (human) = DCLK3 (human) (UniProt Q9C098)
[1] = system: EGFR (human), P00533 [T790M/L858R]
EPHA8 (human) = EPHA8 (human) (UniProt P29322)
EPHB2 (human) = EPHB2 (human) (UniProt P29323)
EPHB6 (human) = EPHB6 (human) (UniProt O15197)
FGFR3 (human) = FGFR3 (human) (UniProt P22607)
HIPK3 (human) = HIPK3 (human) (UniProt Q9H422)
HUNK (human) = HUNK (human) (UniProt P57058)
ICK (human) = ICK (human) (UniProt Q9UPZ9)
ICK (human), sequence (Q9UPZ9 whole entry, looked up): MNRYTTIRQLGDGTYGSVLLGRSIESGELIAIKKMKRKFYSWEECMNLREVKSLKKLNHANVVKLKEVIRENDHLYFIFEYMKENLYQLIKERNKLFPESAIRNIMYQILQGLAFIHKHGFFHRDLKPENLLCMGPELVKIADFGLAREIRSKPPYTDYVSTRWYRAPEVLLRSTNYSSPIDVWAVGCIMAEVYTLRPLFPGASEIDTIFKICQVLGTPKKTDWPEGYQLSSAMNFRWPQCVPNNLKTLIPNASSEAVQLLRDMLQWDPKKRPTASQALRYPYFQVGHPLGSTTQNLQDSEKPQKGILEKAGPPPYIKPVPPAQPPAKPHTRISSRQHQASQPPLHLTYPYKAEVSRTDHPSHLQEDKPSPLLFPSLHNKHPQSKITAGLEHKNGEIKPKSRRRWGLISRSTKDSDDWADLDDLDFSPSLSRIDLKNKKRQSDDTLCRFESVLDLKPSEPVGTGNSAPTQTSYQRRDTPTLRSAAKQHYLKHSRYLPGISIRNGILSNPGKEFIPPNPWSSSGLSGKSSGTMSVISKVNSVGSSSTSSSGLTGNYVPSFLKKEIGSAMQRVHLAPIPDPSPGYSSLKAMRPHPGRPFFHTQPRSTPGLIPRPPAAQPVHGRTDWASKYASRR

MAP3K12 (human) = MAP3K12 (human) (UniProt Q12852)
MAP3K13 (human) = MAP3K13 (human) (UniProt O43283)
MAP4K5 (human) = MAP4K5 (human) (UniProt Q9Y4K4)
MAP4K5 (human), sequence (Q9Y4K4 whole entry, looked up): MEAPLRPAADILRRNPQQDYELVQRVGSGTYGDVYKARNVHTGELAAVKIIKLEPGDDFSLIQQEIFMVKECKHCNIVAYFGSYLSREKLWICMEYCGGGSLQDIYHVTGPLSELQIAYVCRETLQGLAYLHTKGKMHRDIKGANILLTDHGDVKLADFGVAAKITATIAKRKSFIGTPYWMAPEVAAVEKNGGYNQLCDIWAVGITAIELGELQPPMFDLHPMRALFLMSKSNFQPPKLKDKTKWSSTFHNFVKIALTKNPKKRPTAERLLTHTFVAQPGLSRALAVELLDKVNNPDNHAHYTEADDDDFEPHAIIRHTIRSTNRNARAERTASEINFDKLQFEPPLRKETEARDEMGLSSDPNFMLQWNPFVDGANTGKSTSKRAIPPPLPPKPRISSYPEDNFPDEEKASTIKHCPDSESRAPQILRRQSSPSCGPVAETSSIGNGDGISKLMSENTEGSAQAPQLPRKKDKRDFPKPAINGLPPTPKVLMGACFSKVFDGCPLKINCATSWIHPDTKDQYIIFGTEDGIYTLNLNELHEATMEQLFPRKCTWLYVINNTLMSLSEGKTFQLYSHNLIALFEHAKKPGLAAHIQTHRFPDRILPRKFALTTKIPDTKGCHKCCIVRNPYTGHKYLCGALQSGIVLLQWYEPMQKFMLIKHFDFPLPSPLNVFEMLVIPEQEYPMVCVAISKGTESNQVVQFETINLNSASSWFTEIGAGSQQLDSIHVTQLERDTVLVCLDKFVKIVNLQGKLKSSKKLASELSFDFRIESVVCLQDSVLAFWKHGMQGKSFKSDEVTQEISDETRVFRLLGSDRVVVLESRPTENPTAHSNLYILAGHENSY

MAPK10 (human) = MAPK10 (human) (UniProt P53779)
MAPK12 (human) = MAPK12 (human) (UniProt P53778)
MST4 (human) = MST4 (human) (UniProt Q9P289)
NEK9 (human) = NEK9 (human) (UniProt Q8TD19)
PAK4 (human) = PAK4 (human) (UniProt O96013)
PIP4K2B (human) = PIP4K2B (human) (UniProt P78356)
PIP5K1A (human) = PIP5K1A (human) (UniProt Q99755)
PIP5K1A (human), sequence (Q99755 whole entry, looked up): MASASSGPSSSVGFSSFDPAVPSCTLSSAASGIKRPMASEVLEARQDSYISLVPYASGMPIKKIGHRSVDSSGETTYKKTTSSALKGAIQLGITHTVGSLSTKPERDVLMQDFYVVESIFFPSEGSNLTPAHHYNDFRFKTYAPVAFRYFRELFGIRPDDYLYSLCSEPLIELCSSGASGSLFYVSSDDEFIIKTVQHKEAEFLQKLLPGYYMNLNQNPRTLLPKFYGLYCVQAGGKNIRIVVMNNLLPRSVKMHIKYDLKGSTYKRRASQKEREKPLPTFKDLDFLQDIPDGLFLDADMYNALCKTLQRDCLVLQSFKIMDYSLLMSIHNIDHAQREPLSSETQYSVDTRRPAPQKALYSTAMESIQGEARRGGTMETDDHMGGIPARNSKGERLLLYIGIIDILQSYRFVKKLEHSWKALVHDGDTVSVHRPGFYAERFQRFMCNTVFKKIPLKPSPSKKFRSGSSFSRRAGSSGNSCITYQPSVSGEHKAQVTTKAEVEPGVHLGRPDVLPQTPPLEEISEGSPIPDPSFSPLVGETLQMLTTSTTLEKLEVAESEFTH

PLK3 (human) = PLK3 (human) (UniProt Q9H4B4)
PRKAA1 (human) = PRKAA1 (human) (UniProt Q13131)
PRKD1 (human) = PRKD1 (human) (UniProt Q15139)
PRKD1 (human), sequence (Q15139 whole entry, looked up): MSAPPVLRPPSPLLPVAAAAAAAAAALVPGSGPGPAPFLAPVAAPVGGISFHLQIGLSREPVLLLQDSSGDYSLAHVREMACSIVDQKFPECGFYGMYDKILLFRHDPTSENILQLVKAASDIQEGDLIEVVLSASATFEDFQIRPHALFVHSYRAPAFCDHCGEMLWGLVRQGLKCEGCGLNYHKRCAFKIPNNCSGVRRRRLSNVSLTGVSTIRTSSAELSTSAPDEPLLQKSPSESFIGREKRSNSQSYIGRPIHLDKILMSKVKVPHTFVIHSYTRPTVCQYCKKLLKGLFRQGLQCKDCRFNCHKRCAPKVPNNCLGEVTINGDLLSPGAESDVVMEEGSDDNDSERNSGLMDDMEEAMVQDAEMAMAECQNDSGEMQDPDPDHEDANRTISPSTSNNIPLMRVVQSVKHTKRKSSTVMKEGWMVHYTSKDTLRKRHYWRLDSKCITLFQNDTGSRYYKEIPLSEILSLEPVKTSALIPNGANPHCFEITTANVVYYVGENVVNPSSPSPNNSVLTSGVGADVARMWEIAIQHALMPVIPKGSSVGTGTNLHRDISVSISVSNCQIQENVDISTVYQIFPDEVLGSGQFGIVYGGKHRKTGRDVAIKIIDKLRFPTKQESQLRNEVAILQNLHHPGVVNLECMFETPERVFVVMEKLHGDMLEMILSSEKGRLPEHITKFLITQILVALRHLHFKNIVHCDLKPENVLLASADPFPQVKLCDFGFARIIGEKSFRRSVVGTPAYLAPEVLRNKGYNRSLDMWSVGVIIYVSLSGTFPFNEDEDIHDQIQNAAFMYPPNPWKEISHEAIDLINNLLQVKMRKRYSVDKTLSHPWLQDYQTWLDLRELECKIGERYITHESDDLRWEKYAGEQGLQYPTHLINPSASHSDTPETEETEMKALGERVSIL

PRKD2 (human) = PRKD2 (human) (UniProt Q9BZL6)
RIPK2 (human) = RIPK2 (human) (UniProt O43353)
RPS6KA3 KD1 (human) = RPS6KA3 KD1 (human) (UniProt P51812)
SGK110 (human) = SGK110 (human) (UniProt P0C264)
STK16 (human) = STK16 (human) (UniProt O75716)
STK16 (human), sequence (O75716 whole entry, looked up): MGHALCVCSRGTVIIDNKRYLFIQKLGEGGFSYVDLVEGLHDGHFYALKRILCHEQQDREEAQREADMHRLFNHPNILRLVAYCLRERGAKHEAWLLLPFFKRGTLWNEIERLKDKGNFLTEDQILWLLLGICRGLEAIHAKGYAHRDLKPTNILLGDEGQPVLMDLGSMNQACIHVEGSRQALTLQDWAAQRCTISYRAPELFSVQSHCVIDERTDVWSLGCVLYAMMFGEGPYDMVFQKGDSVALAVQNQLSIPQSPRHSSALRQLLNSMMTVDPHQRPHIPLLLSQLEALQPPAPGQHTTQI

TBK1 (human) = TBK1 (human) (UniProt Q9UHD2)
TESK1 (human) = TESK1 (human) (UniProt Q15569)
[2] = molecular target: TYK2 JH1 catalytic (human) (UniProt P29597)
TYK2 JH1 catalytic (human), sequence (P29597 whole entry, looked up): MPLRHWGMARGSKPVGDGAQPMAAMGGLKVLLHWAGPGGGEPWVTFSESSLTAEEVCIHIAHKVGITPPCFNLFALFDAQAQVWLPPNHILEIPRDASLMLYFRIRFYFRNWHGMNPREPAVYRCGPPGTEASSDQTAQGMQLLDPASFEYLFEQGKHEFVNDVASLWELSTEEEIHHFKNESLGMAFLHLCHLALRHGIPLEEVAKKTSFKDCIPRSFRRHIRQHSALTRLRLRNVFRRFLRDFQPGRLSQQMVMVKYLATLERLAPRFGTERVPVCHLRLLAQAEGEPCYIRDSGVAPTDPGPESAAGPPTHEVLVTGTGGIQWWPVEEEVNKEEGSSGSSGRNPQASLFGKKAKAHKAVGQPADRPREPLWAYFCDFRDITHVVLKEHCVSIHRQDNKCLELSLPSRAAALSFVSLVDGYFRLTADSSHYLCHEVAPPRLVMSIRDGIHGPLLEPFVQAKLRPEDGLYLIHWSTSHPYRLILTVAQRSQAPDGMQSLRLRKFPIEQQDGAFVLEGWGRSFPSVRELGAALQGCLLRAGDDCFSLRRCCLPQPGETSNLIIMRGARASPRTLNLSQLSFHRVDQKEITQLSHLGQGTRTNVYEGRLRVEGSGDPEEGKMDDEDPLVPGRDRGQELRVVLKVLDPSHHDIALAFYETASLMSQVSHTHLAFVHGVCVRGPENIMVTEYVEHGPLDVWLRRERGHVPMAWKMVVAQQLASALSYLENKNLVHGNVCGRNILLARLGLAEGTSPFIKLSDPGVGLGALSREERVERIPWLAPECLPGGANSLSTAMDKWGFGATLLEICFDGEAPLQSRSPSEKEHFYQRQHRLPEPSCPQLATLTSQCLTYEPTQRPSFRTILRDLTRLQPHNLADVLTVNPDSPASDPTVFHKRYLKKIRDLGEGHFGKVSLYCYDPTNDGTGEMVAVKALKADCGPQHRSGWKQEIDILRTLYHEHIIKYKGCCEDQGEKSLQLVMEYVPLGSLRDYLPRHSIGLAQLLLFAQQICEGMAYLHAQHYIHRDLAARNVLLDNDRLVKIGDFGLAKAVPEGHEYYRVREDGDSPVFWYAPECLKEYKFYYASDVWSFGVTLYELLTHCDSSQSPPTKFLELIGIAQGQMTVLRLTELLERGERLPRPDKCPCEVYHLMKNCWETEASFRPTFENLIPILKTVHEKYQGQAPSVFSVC

ACVR2B (human), sequence (Q13705 whole entry, looked up): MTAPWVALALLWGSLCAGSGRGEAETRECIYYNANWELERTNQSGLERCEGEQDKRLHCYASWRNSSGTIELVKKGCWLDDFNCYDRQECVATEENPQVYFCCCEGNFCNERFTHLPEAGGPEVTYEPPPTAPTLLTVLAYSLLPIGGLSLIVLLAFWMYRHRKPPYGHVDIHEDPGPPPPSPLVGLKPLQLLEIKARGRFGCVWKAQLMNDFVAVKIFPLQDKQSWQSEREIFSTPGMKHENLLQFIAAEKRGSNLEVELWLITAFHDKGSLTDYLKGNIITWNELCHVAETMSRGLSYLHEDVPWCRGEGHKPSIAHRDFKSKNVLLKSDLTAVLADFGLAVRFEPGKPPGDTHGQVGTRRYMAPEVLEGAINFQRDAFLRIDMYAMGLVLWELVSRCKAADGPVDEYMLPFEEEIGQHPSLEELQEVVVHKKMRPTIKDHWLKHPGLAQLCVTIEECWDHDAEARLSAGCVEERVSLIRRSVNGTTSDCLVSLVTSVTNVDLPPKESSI

Row | SMILES | kinase still bound, per cent of control (ACVR2B (human)) [%] | kinase still bound, per cent of control (ALK (human)) [%] | kinase still bound, per cent of control (BMPR2 (human)) [%] | kinase still bound, per cent of control (CDK3 (human)) [%] | kinase still bound, per cent of control (CSNK1A1L (human)) [%] | kinase still bound, per cent of control (DAPK2 (human)) [%] | kinase still bound, per cent of control (DCLK3 (human)) [%] | kinase still bound, per cent of control [1] [%] | kinase still bound, per cent of control (EPHA8 (human)) [%] | kinase still bound, per cent of control (EPHB2 (human)) [%] | kinase still bound, per cent of control (EPHB6 (human)) [%] | kinase still bound, per cent of control (FGFR3 (human)) [%] | kinase still bound, per cent of control (HIPK3 (human)) [%] | kinase still bound, per cent of control (HUNK (human)) [%] | kinase still bound, per cent of control (ICK (human)) [%] | kinase still bound, per cent of control (MAP3K12 (human)) [%] | kinase still bound, per cent of control (MAP3K13 (human)) [%] | kinase still bound, per cent of control (MAP4K5 (human)) [%] | kinase still bound, per cent of control (MAPK10 (human)) [%] | kinase still bound, per cent of control (MAPK12 (human)) [%] | further results
1 | COc1cc(N2CCN(C)CC2)ccc1Nc1ncc2c(n1)N(C)c1ccccc1C(=O)N2C | 100 | 16 | 100 | 100 | 100 | 100 | 16 | 100 | 100 | 100 | 34 | 100 | 100 | 100 | 100 | 100 | 100 | 100 | 100 | 100 | kinase still bound, per cent of control (CLK1 (human)): 100%; kinase still bound, per cent of control (MST4 (human)): 100%; kinase still bound, per cent of control (NEK9 (human)): 100%; kinase still bound, per cent of control (PAK4 (human)): 100%; kinase still bound, per cent of control (PIP4K2B (human)): 100%; kinase still bound, per cent of control (PIP5K1A (human)): 100%; kinase still bound, per cent of control (PLK3 (human)): 100%; kinase still bound, per cent of control (PRKAA1 (human)): 100%; kinase still bound, per cent of control (PRKD1 (human)): 3.8%; kinase still bound, per cent of control (PRKD2 (human)): 0.55%; kinase still bound, per cent of control (RIPK2 (human)): 100%; kinase still bound, per cent of control (RPS6KA3 KD1 (human)): 100%; kinase still bound, per cent of control (SGK110 (human)): 30%; kinase still bound, per cent of control (STK16 (human)): 100%; kinase still bound, per cent of control (TBK1 (human)): 100%; kinase still bound, per cent of control (TESK1 (human)): 100%; kinase still bound, per cent of control [2]: 100%
2 | CCN(CC)CCCCNc1ncc2c(n1)N(C)C(=O)N(c1c(Cl)c(OC)cc(OC)c1Cl)C2 | 100 | 100 | 100 | 100 | 100 | 100 | 100 | 100 | 100 | 100 | 5.2 | 3.3 | 100 | 100 | 100 | 100 | 100 | 23 | 100 | 100 | kinase still bound, per cent of control (CLK1 (human)): 100%; kinase still bound, per cent of control (MST4 (human)): 11%; kinase still bound, per cent of control (NEK9 (human)): 100%; kinase still bound, per cent of control (PAK4 (human)): 100%; kinase still bound, per cent of control (PIP4K2B (human)): 100%; kinase still bound, per cent of control (PIP5K1A (human)): 100%; kinase still bound, per cent of control (PLK3 (human)): 100%; kinase still bound, per cent of control (PRKAA1 (human)): 100%; kinase still bound, per cent of control (PRKD1 (human)): 100%; kinase still bound, per cent of control (PRKD2 (human)): 100%; kinase still bound, per cent of control (RIPK2 (human)): 100%; kinase still bound, per cent of control (RPS6KA3 KD1 (human)): 100%; kinase still bound, per cent of control (SGK110 (human)): 100%; kinase still bound, per cent of control (STK16 (human)): 100%; kinase still bound, per cent of control (TBK1 (human)): 100%; kinase still bound, per cent of control (TESK1 (human)): 100%; kinase still bound, per cent of control [2]: 100%
3 | CS(=O)(=O)N1CCN(Cc2cc3nc(-c4cccc5[nH]ncc45)nc(N4CCOCC4)c3s2)CC1 | 100 | 100 | 100 | 100 | 100 | 100 | 100 | 100 | 100 | 100 | 100 | 100 | 100 | 100 | 100 | 100 | 100 | 100 | 100 | 100 | kinase still bound, per cent of control (MST4 (human)): 100%; kinase still bound, per cent of control (NEK9 (human)): 100%; kinase still bound, per cent of control (PAK4 (human)): 100%; kinase still bound, per cent of control (PIP4K2B (human)): 100%; kinase still bound, per cent of control (PIP5K1A (human)): 100%; kinase still bound, per cent of control (PLK3 (human)): 100%; kinase still bound, per cent of control (PRKAA1 (human)): 100%; kinase still bound, per cent of control (PRKD1 (human)): 100%; kinase still bound, per cent of control (PRKD2 (human)): 100%; kinase still bound, per cent of control (RIPK2 (human)): 100%; kinase still bound, per cent of control (RPS6KA3 KD1 (human)): 100%; kinase still bound, per cent of control (SGK110 (human)): 100%; kinase still bound, per cent of control (STK16 (human)): 100%; kinase still bound, per cent of control (TBK1 (human)): 100%; kinase still bound, per cent of control (TESK1 (human)): 100%; kinase still bound, per cent of control [2]: 100%
